# In PMC5084024, “The Identification of Biochanin A as a Potent and Selective β-Site App-Cleaving Enzyme 1 (Bace1) Inhibitor” (Nutrients, 2016):
# Biological target: T1, BACE1 (β-site APP-cleaving enzyme 1) (Homo sapiens, UniProt P56817)
# T1 construct: human recombinant BACE1, baculovirus-expressed
# Assay: FRET enzyme assay with recombinant BACE1; Dixon and Lineweaver-Burk kinetics (Ki […])
# Format: biochemical
# T1 sequence (P56817 46-457): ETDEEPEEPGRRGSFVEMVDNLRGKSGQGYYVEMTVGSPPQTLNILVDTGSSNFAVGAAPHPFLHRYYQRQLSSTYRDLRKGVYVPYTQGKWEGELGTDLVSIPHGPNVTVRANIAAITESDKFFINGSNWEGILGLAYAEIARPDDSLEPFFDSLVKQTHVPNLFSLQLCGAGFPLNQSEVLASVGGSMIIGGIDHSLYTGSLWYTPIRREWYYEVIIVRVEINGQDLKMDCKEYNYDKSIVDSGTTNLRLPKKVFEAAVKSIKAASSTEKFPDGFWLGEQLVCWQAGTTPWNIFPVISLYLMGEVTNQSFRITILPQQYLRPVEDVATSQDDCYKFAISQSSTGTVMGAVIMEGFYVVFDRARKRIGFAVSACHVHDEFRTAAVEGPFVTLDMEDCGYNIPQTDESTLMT
compound,measurement,value
"COc1ccc(-c2coc3cc(O)cc(O)c3c2=O)cc1 [Biochanin A, 5,7-dihydroxy-3-(4-methoxyphenyl)chromen-4-one]",IC50,28 µM
